Assay type in all cases: in vivo
Experiment [1] relates to Summer wheat. The experiment in a line: Outdoor trial, post-emergence, tank mix (Example 1). Particulars: herbicide 0.120 kg/ha, combinations: tank mix mefenpyr-diethyl:compound (I) = 2:1. As to the method:
(§1) Seeds of monocotyledonous and dicotyledonous weed and crop plants are placed into sandy loam in wood fiber pots or in plastic pots, covered with soil and cultivated in a greenhouse, including during the vegetation period outdoors outside of the greenhouse, under good growth conditions. Two-three weeks after sowing, the test plants are treated at the one- to three-leaf stage. […], formulated as wettable powders (WP) or emulsifiable concentrates (EC) are, in various dosages with a water application rate of 300 l/ha (converted), with added wetting agent (0.2 to 0.3%) sprayed onto the plants and the surface of the soil. Three to four weeks after the treatment of the test plants, the effect of the preparations is rated visually in comparison to untreated controls (herbicidal effect in percent (%): 100% effect=plants have died, 0% effect=like control plants).
(§2) If it is additionally to be tested as to whether safeners can improve the plant compatibility of test substances in the case of crop plants, the following options are used for applying the safener:
(§3) the safener is applied together with the test substance as a tank mix (the amount of safener is stated in g/ha or as a ratio, based on the herbicide).
(§4) By comparing the effect of the test substances on crop plants without or with safener treatment, it is possible to assess the effect of the safener substance. [drawing 61] [drawing 62]
(§5) Outdoor trial/Post-emergence
(§6) Ratio mefenpyr-diethyl:compound of the formula (I)=2:1

Experiment [2] has as its system Summer barley. The description is as above. The settings on record: herbicide 0.120 kg/ha, combinations: tank mix mefenpyr-diethyl:compound (I) = 2:1, 100% = plants have died, 0% = like control. As to the method:
as §1, §2, §3, §4, §5, §6

In the next experiment the test system is Winter wheat. The experiment is described as above. The settings on record: herbicide 0.120 kg/ha, combinations: tank mix mefenpyr-diethyl:compound (I) = 2:1. As to the method: as §1, §2, §3, §4, §5, §6
Another experiment has as its system Winter barley. The experiment is described as above. The settings on record: herbicide 0.120 kg/ha, combinations: tank mix mefenpyr-diethyl:compound (I) = 2:1. As to the method: as §1, §2, §3, §4, §5, §6
In experiment [3] the test system is Corn of the Cultivar Lorenzo. The experiment is described as follows: Greenhouse trial, post-emergence, corn (Example 3). As to the method: as §1, §2
seeds of the crop plants are, before sowing, dressed with the safener substance (the amount of safener is stated in percent, based on the weight of the seed)
(§7) before the application of the test substances, the crop plants are sprayed with the safener at a certain application rate per hectare (usually 1 day before the application of the test substances).
as §4
Greenhouse Trial/Post-Emergence
Corn of the Cultivar Lorenzo
Addition of Safener: • a) Before sowing, seeds of the crop plants are dressed with the compound of the formula (IIe-5) (0.5% of safener, based on the weight of the seeds). • b) One day before the application of the compounds of the formula (I), the crop plants are treated with the compound of the formula (IIe-5) (application rate 100 g/ha). • c) One day before the application of the compounds of the formula (I), the crop plants are treated with isoxadifen (application rate 100 g/ha)
For the spray treatment, the herbicide was formulated as WP20 and the safener as WP10.

Experiment [4] deals with Summer wheat. The experiment is described as follows: Greenhouse trial, post-emergence, safener one day before (Example 2). Particulars: combinations: safener 100 g/ha one day before. As to the method: as §1, §2, §7, §4
(§8) Greenhouse trial/Post-emergence
(§9) One day before the application of the compounds of the formula (I), the crop plants are treated with the safener (application rate 100 g/ha).

Experiment [5] deals with Summer barley. The description is as above. Particulars: combinations: safener 100 g/ha one day before. As to the method:
as §1, §2, §7, §4, §8, §9

[6] abbreviates: herbicide 0.013 kg/ha; greenhouse, post-emergence; corn cultivar Lorenzo; safener by method a), b) or c) as.
Where [7] appears, read: herbicide 0.025 kg/ha; greenhouse, post-emergence; corn cultivar Lorenzo; safener by method a), b) or c) as.
Setting [8] is: herbicide 0.050 kg/ha; greenhouse, post-emergence; corn cultivar Lorenzo; safener by method a) IIe-5 seed dressing 0.5%, b) IIe-5 100 g/ha one day before, c) isoxadifen 100 g/ha one day before.

For `CCc1cc(Cl)cc(Cl)c1C1(Cl)C(=O)NC2(CCC(OC)CC2)C1=O` (stereo not drawn) [I-1-1], the “herbicidal effect in percent, Summer wheat” value in the experiment on Summer wheat [1] stood at 15%. For the same molecule, in the experiment with Summer barley [2], the “herbicidal effect in percent, Summer barley” value was determined as 40%. Also, the “herbicidal effect in percent, Winter wheat” value in the experiment on Winter wheat came out at 20%. Also, the “herbicidal effect in percent, Winter barley” value with Winter barley came out at 30%. Also, the entries for the “herbicidal effect in percent, Corn” value in experiment [3] (setting [6]), in experiment [3] (setting [7]) and in experiment [3] (setting [8]) were 99%, 100% and 100%, respectively.

Regarding `CCc1cc(Br)cc(CC)c1C1(Cl)C(=O)NC(C)(C)C1=O` (stereo not drawn) [I-1-3], the results for the “herbicidal effect in percent, Corn” value in experiment [3] (setting [6]), in experiment [3] (setting [7]) and in experiment [3] (setting [8]) were 0%, 0% and 85%, respectively.

For `CCc1cc(Br)cc(CC)c1C1(Cl)C(=O)NC2(CCCCC2)C1=O` (stereo not drawn) [I-1-4], the “herbicidal effect in percent, Summer wheat” value in the experiment on Summer wheat [4] (herbicide 0.100 kg/ha) is 10%. Moreover, the “herbicidal effect in percent, Summer barley” value with Summer barley [5] (herbicide 0.100 kg/ha) came out at 10%.

On to `CCc1cc(Cl)cc(Br)c1C1(Cl)C(=O)NC2(CCCCC2)C1=O` (stereo not drawn) [I-1-5], for which the figures for the “herbicidal effect in percent, Summer wheat” value with Summer wheat [4] (herbicide 0.025 kg/ha), in the experiment on Summer wheat [4] (herbicide 0.050 kg/ha) and with Summer wheat [4] (herbicide 0.100 kg/ha) were 30%, 60% and 65%, respectively. For the same molecule, the “herbicidal effect in percent, Summer barley” value amounted to 20% with Summer barley [5] (herbicide 0.025 kg/ha), 50% in the experiment with Summer barley [5] (herbicide 0.050 kg/ha) and 92% in the experiment on Summer barley [5] (herbicide 0.100 kg/ha).

With `Cc1cc(-c2ccc(Cl)cc2)cc(C)c1C1(Cl)C(=O)N2CCCCN2C1=O` [I-4-1], the “herbicidal effect in percent, Summer wheat” value is recorded as 20% with Summer wheat [4] (herbicide 0.025 kg/ha), 60% in the experiment with Summer wheat [4] (herbicide 0.050 kg/ha) and 60% in the experiment with Summer wheat [4] (herbicide 0.100 kg/ha). Moreover, the entries for the “herbicidal effect in percent, Summer barley” value in the experiment on Summer barley [5] (herbicide 0.025 kg/ha), with Summer barley [5] (herbicide 0.050 kg/ha) and in the experiment with Summer barley [5] (herbicide 0.100 kg/ha) were 20%, 80% and 80%, respectively.

On to `Cc1cc(-c2ccc(Cl)cc2)cc(C)c1C1(Cl)C(=O)N2CCOCCN2C1=O` [I-4-2], for which the “herbicidal effect in percent, Summer wheat” value in the experiment with Summer wheat [4] (herbicide 0.025 kg/ha) is 60%; with Summer wheat [4] (herbicide 0.050 kg/ha), 97%; in the experiment on Summer wheat [4] (herbicide 0.100 kg/ha), 97%. Moreover, the “herbicidal effect in percent, Summer barley” value with Summer barley [5] (herbicide 0.025 kg/ha) worked out at 40%; with Summer barley [5] (herbicide 0.050 kg/ha), 95%; in the experiment with Summer barley [5] (herbicide 0.100 kg/ha) it was 97%.

(Values after patent US20060160703A1, “Selective herbicides based on substituted cyclic dicarbonyl compounds and safeners” (priority 2003, published 2006).)
